Several values for one entry are separate records, joined by “and”; a condition that tells them apart may be missing. Equal values may be shown once.
What was measured:
PSA [1] = assay: Western blot of PSA expression in C4–2 cells; assay type: cell-based, human; settings: C4–2 cells
Description: Cell lysate protein concentrations were determined in a bicinchoninic acid (BCA) assay. Equal amounts of cell protein were mixed with SDS-PAGE sample buffer and placed in a heat block at 100 °C for 5 min. The protein constituents of C4–2 cells were separated by SDS-PAGE on 10% separating gels, transferred to nitrocellulose membranes and western blots were probed overnight at 4 °C with a 1:1000 dilution of a rabbit anti-hPSA (Cell Signaling, Danvers, MA) primary antibody in Tris-buffered saline (TBS) Tween 20 (TBST) containing 5% non-fat milk. Membranes were washed 3x in TBST for 10 min, then incubated for 1 h at room temperature with a 1:10,000 dilution of the goat anti-rabbit IgG horse radish peroxidase (HRP) conjugated secondary antibody (Invitrogen, Carlsbad, CA) in TBST containing 5% non-fat milk. Western blots were then washed 3x in TBST and developed with Pierce enhanced chemiluminescence (ECL) western blotting substrate (Thermo Fisher Scientific, Waltham, MA). Images of western blot ECL bands were acquired on an iBright 1500 imaging system (Thermo Fisher Scientific, Waltham, MA) and quantified by iBright image analysis software.

PSA [2] = assay: Dot blot of PSA secretion by C4–2 cells; assay type: cell-based, human; settings: C4–2 cells; 10 nM DHT 24 h
Description: To determine PSA secretion levels, C4–2 cells were seeded at 1.4 × 10 [5] cells/well in 12-well plates and treated as described above for PSA cell expression experiments. […] 500 μL of conditioned media supernatant was added to the wells of 96-well to Bio-blot apparatus (BioRad, Hercules, CA) containing a nitrocellulose membrane and was allowed to pass through and attach to the membrane under gravity for 3–4 h at room temperature. The membrane was washed 1x with 500 μL TBS under vacuum, blocked with 1% BSA in TBST for 1 h, and then incubated overnight at 4 °C with the primary rabbit anti-hPSA antibody (Cell Signaling, Danvers, MA) diluted 1:1000 in TBST plus 1% BSA. Dot blots were washed 3x in 10 mL of TBST for 10 min, then incubated for 1 h with secondary goat anti-rabbit-IgG HRP conjugated antibody (Invitrogen, Carlsbad, CA) diluted 1:10,000 in TBST plus 1% Bovine Serum Albumin (BSA), washed 3x with 10 mL of TBST for 10 min, and then developed with Pierce ECL western blotting substrate. Images of ECL dot blots were acquired on an iBright 1500 imaging system and quantified by iBright image analysis software.

AR-TIF2 PPI [3] = target: T1, AR-TIF2 PPI (Homo sapiens, UniProt P10275); assay: AR-TIF2 PPI biosensor (PPIB) HCS assay, disruption of pre-formed AR-TIF2 PPI complexes; assay type: cell-based; settings: U-2 OS cells; 25 nM DHT 90 min prior to compounds for 3 h
T1 construct: expressed in transfected cells; host or cells: U-2 OS osteosarcoma cells, co-infected with recombinant adenoviruses
T1 sequence (P10275 663-920 limits assumed): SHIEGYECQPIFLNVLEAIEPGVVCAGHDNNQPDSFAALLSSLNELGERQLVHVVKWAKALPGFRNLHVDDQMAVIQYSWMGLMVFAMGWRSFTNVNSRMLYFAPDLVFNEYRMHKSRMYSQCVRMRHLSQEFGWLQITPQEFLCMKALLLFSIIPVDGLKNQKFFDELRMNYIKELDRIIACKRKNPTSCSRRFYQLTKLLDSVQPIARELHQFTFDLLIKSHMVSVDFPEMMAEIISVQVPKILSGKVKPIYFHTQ
Description: (§1) Daughter plates containing 2 μL of the serially diluted compounds in DMSO were prepared and replicated from 384-well serial dilution master plates using a Janus MDT platform outfitted with a 384-well transfer head. Aluminum adhesive plate seals were applied, and plates were stored at −20 °C. For bioassay testing, daughter plates were withdrawn from −20 °C storage, thawed to ambient temperature, and centrifuged for 1 min at 100 × g, and plate seals were removed before 38 μL of serum-free media (SFM) was transferred into wells using a Matrix pipettor (ThermoFisher, Waltham, MA), to generate an intermediate stock concentration of validation compounds ranging from 0.977 to 500 μM (5.0% DMSO). Diluted compounds were mixed by repeated aspiration and dispensation using a 384-well P30 dispensing head on the Janus MDT platform and then, 5 μL of diluted compounds was transferred to assay plate wells to provide a final concentration range from 0.0977 to 50 μM (0.5% DMSO).
(§2) The AR-TIF2 PPIB HCS assay was performed in U-2 OS osteosarcoma cells as described previously. Briefly, U-2 OS cells were coinfected with recombinant adenovirus biosensor expression constructs and seeded at 2500 cells per well in 384-well collagen-coated microplates (Greiner BioOne #781956) and plates were incubated overnight at 37°C in 5% CO2 and 95% humidity. […] After the appropriate time, assay plates were fixed by transfer of 50 μL of pre-warmed (37°C) 7.4% formaldehyde and 2 μg/mL Hoechst 33342 in PBS and incubation at room temperature for 30 min. Liquid was aspirated, plates were washed twice with 85 μL PBS, leaving the final wash in the plate. Plates were sealed with adhesive aluminum plate seals, and fluorescent images of three fields of view were acquired in the DAPI (Hoechst stained nuclei), FITC (TIF2-GFP) and Texas Red (AR-RFP) channels on an ImageXpress Micro (IXM) automated HCS platform (Molecular Devices LLC, Sunnyvale, CA) using a 10X Plan Fluor 0.3 NA objective. Images were analyzed using the Translocation Enhanced (TE) image analysis module of the MetaXpress software as described previously.
(§3) In 384-well assays, DMSO minimum (n = 32) and maximum (n = 32) plate control wells were utilized to calculate signal-to-background ratios (S:B) and Z’-factor coefficient assay performance quality control statistics, and to normalize the signals of compound treated wells and to represent 0% and 100% respectively. For the 96-well AR-LBD H^3-DHT radioligand binding assay, eight minimum and maximum plate control wells were utilized to normalize the data. For the PC cell line growth inhibition assays we used the DMSO control data from the T0 and T72 assay plates to assess the dynamic range of the T0 to T72 cell growth, and to calculate S:B ratios and Z’-factor coefficient statistics for the assay signal window (T0 to T72). To normalize the 72 h compound exposure PC growth inhibition data, the signals from the compound treated wells were processed and expressed as% of the T72 DMSO plate controls. IC50 and GI50 values for each of the bioassays were calculated using Graph-Pad Prism 9 software to plot and fit data to curves using the Sigmoidal dose response variable slope equation Y = Bottom + [Top-Bottom]/ [1 + 10^^(LogEC50-X)*HillSlope].

C4–2 cells = assay: Prostate cancer cell line growth inhibition assay, C4–2; assay type: cell-based; settings: C4-2, 72 h; read-out: C4–2 GI50 (AR +)
Description: (§4) The PC-3, DU-145, LNCaP, C4–2, and 22Rv1 PC cell line growth inhibition assays have been described previously. On day 1, each PC cell line was harvested, counted, and seeded into two 384-well assay plates, a time zero (T0) and a time 72 h (T72) plate. PC cell lines were all seeded at 1000 cells per well in 45 μL of tissue culture media in uncoated white clear bottom 384-well assay plates (VWR, # 82050–076) using a Matrix electronic multichannel pipette (Thermo Fisher Scientific, Waltham, MA) and cultured overnight at 37 °C, 5% CO2, and 95% humidity. On day 2, 25 μL of the Cell Titer Glo (CTG) (Promega Corporation, Madison, WI) detection reagent was dispensed into the wells of the T0 assay plate using a Matrix electronic multichannel pipette, and the RLUs were captured on the SpectraMax M5e (Molecular Devices LLC, Sunnyvale, CA) microtiter plate reader. Also on day 2, 5 μL of compounds were transferred into the test wells of the T72 384-well assay plates which were returned to the incubator for 72 h. Control wells received DMSO alone. On day 5, 25 μL of the CTG detection reagent was dispensed into the wells of the T72 assay plate using a Matrix electronic multichannel pipette, and the RLU’s were captured on the SpectraMax M5e microtiter plate reader platform.
as §3

AR-TIF2 PPI [4] = target: T1, AR-TIF2 PPI; assay: AR-TIF2 PPI biosensor (PPIB) HCS assay, inhibition of DHT-induced AR-TIF2 PPI formation; assay type: cell-based; settings: U-2 OS cells; compounds 3 h prior to 25 nM DHT for 90 min
Description: as §1, §2, §3

22Rv1 cells = assay: Prostate cancer cell line growth inhibition assay, 22Rv1; assay type: cell-based; settings: Homo sapiens, 22Rv1, 72 h; read-out: 22Rv1 GI50 (AR+)
Description: as §4, §3

LNCaP cells = assay: Prostate cancer cell line growth inhibition assay, LNCaP; assay type: cell-based; settings: Homo sapiens, LNCaP, 72 h; read-out: LNCap GI50 (AR+)
Description: as §4, §3

DU-145 cells = assay: Prostate cancer cell line growth inhibition assay, DU-145; assay type: cell-based; settings: Homo sapiens, DU-145, 72 h; read-out: DU145 GI50 (AR−)
Description: as §4, §3

[5] = system: PC cell lines positive (LNCaP, C4–2, & 22Rv1 cells) or negative (PC-3 & DU-145) for AR; assay: Prostate cancer cell line growth inhibition assays, panel statements; assay type: cell-based; settings: ALL5; all 5 PC cell lines; 72 h; ≥50% growth inhibition not achieved at ≤100 μM; read-out: GI50 in any PC cell line
Description: as §4, §3

U-2 OS cells = assay: AR-TIF2 PPIB cell loss (Hoechst stained nuclei); assay type: cell-based; settings: 4.5 h compound exposure
Description: as §2

PC-3 cells = assay: Prostate cancer cell line growth inhibition assay, PC-3; assay type: cell-based; settings: Homo sapiens, PC-3, 72 h, read-out: PC3 GI50 (AR−)
Description: as §4, §3

[6] = system: LNCaP mouse xenograft models; settings: cited from earlier work

## C[C@]12CCC(=O)C[C@@H]1CC[C@@H]1[C@@H]2CC[C@]2(C)[C@@H](O)CC[C@@H]12 [DHT, 5α-dihydrotestosterone, reference compound]
PSA [1]; 10 nM DHT 24 h
  Increase of PSA levels in cells over untreated controls: 12.3 fold and 11.4 fold
PSA [2]
  Increase of PSA levels in conditioned media over untreated controls: 2.4 fold

## Cc1nsc(NC(=O)N2CCC(N3CCCC3=O)CC2)n1 [S2–9]
AR-TIF2 PPI [3]
  IC50: > 100 µM
C4–2 cells
  GI50: > 100 µM
AR-TIF2 PPI [4]
  IC50: > 100 µM
22Rv1 cells
  GI50: > 100 µM
LNCaP cells
  GI50: > 100 µM
DU-145 cells
  GI50: > 100 µM
[5]
  GI50: > 100 µM
U-2 OS cells
  AR-TIF2 PPIB Cell Loss: >100 µM
PC-3 cells
  GI50: > 100 µM

## Cc1nsc(NC(=O)N2CCC(F)CC2)n1 [S2–10]
C4–2 cells
  GI50: > 100 µM
22Rv1 cells
  GI50: > 100 µM
LNCaP cells
  GI50: > 100 µM
DU-145 cells
  GI50: > 100 µM
[5]
  GI50: > 100 µM
U-2 OS cells
  AR-TIF2 PPIB Cell Loss: >100 µM
PC-3 cells
  GI50: > 100 µM

## Cc1c(-c2ccccc2F)[nH]c2ccc(CNC(=O)c3cc[nH]n3)cc12 [S3–16]
AR-TIF2 PPI [4]
  IC50: 28.8 µM

## Cc1c(-c2ccccc2F)[nH]c2ccc(CNC(=O)CCC3=NNC(=O)CC3)cc12 [S3–18]
AR-TIF2 PPI [3]
  IC50: > 100 µM
AR-TIF2 PPI [4]
  IC50: 39.6 µM

## Cc1c(-c2ccccc2F)[nH]c2ccc(CNC(=O)Cc3cccnc3)cc12 [S3–19]
AR-TIF2 PPI [3]
  IC50: > 100 µM
AR-TIF2 PPI [4]
  IC50: 68.5 µM

## CCc1[nH]c2c(CNC(=O)CCCc3cn[nH]c3)cc(F)cc2c1C [S3–25]
AR-TIF2 PPI [4]
  IC50: 77.1 µM

## Cc1cccc2c(-c3ccc4ccccc4n3)c[nH]c12 [VPC-13566, 2-(7-methyl-1H-indol-3-yl) quinoline]
[6]
  CRPC tumor growth and serum PSA levels: reduced CRPC tumor growth and serum PSA levels

## CC(C)NC(=O)c1cccc2nc(-c3cn(COP(=O)([O-])[O-])c4c(F)c(F)c(F)cc34)ccc12.[Na+].[Na+] [VPC-13822]
[6]
  PSA production and CRPC tumor volume: reduced PSA production and CRPC tumor volume
[6]; mouse, in vivo
  Toxicity in xenograft models: no observable toxicity

## CNC(=O)c1ccc(N2C(=S)N(c3ccc(C#N)c(C(F)(F)F)c3)C(=O)C2(C)C)cc1F [enzalutamide, reference compound]
PSA [1]; 25 μM for 3 h prior to 10 nM DHT, 24 h
  Reduction of DHT-enhanced PSA expression levels: 7.5 fold
PSA [1]; 25 μM for 3 h prior to media, 24 h
  Reduction of endogenous PSA expression levels: 3.3 fold

Source: paper PMC12366525, “Characterization of allosteric modulators that disrupt androgen receptor co-activator protein-protein interactions to alter transactivation–Drug leads for metastatic castration resistant prostate cancer” (SLAS discovery : advancing life sciences R & D, 2023)
